This is an account of results in patent US11267780B2, “Compound for modulating DDAH and ADMA levels, as well as methods of using thereof to treat disease” (THE TRUSTEES OF INDIANA UNIVERITY, priority 2018, dated 2022).

One experiment concerns DDAH promoter. The experiment can be described thus: DDAH promoter activation assay (DDAH promoter-Luciferase reporter). The class given is cell-based. As for the experimental part: DDAH promoter activation assay. Activation of DDAH promoter was determined using a DDAH promoter-Luciferase reporter assay. DDAH promoter DNA sequence was cloned in pGL4.10 luciferase reporter plasmid. For transfection of HEK-293 cells, the cells were seeded in six well plates at a density of 2.0×10^5 cells/well. After 24 hours, the cells were transfected with the DDAH promoter plasmid by adding 200 ng DNA/well and incubated for 24 hours. Transfected cells were then transferred to 96 well plates at 50,000 cells/well and incubated overnight with various concentrations of the test compounds. The medium was removed from the wells and 20 μL of lysis reagent was added. After 5 min, 100 μL Luciferase assay reagent was added, and luminescence was measured.
Background: A reporter such as luciferase makes a cellular process visible.

Experiment [1] deals with DDAH-1 protein. As to the kind of experiment: DDAH western blot analysis in human pulmonary artery smooth muscle cells. Format: cell-based. The following applies: 24 hours. As for the experimental part: (§1) DDAH and Collagen western blot analysis. Human umbilical vein endothelial cells (HUVEC), retinal endothelial cells and vascular smooth muscle cells from Lonza were transferred to 6 well plates at a density of 4.0×10^5/well and incubated overnight. Various concentrations of test compounds were then added. After 24 hours, medium was removed, the cells were scraped and collected in 50 μL of lysis buffer containing 50 mM Tris-HCl, 0.25% deoxycholic acid, 1% NP-40, 1 mM EDTA and protease inhibitor cocktails. Cell extract was subjected to SDS polyacrylamide gel electrophoresis. Proteins from the 12% polyacrylamide gels were transferred to PVDF membranes for westerns and blotted with DDAH or collagen 1 antibodies from Abcam.
(§2) Expression of DDAH was determined in human pulmonary artery smooth muscle cells (FIG. 1A) and human retinal microvascular endothelial cells (FIG. 1B). Cells were treated with different concentrations of VN-317. After 24 hours, cells were extracted in lysis buffer as described under methods. Extracts were subjected to SDS gel electrophoresis. Proteins from SDS gel were transferred to PVDF membrane and for western blotting using DDAH-1 antibodies. […] Therese data illustrate differential modulation of DDAH by VN-317 in different cell types.
(A western blot detects proteins with antibodies after separation by electrophoresis.)

In experiment [2] the test system is DDAH-1 protein. The experiment can be described thus: DDAH western blot analysis in human retinal microvascular endothelial cells. The following applies: 24 hours. The class given is cell-based. As to the method:
as §1, §2

The test system of the next experiment is collagen 1. As to the kind of experiment: Collagen western blot analysis in myofibroblast like smooth muscle cells. The class given is cell-based. The following applies: in response to TGF-beta, 48 hours. As for the experimental part:
as §1
Cells were treated with VN-317 in the presence or absence of TGF-beta. After 48 hours, cells were extracted in 50 ul lysis buffer and cell extract was subjected to SDS gel electrophoresis. Proteins from the 12% polyacrylamide gels were transferred to PVDF membranes for westerns and blotted collagen 1a antibodies from Abcam.

The subject of the next experiment is monocrotalin induced PAH. The experiment can be described thus: Rat model of monocrotalin induced PAH. Format: in vivo. The following applies: 1 mg/kg s.c. once a day. As for the experimental part:
A rat model of monocrotalin induced PAH was used for in vivo studies. Male Sprague Dawley rats about 250 g were purchased from Charles river. PAH was induced by a single s.c. injection of 60 mg/kg monocrotalin. VN-317 (1 mg/kg) or vehicle was administered subcutaneously on day one and once a day thereafter. After 6 weeks, the disease development was determined by pulmonary artery (PA) pressure measurements, echocardiography, and histology. PA pressure was determined by right heart catheterization using a 1.4-F micromanometer-tipped Millar catheter with fluoroscopy guidance. Transthoracic echocardiography was performed using a GE vivid i with 5.0-13.0 MHz il2L-RS linear array transducer. Pulmonary artery acceleration time (PAAT) was measured using pulse-wave Doppler echocardiography with the sample volume centrally positioned in the PA distal to the pulmonary valve. M-mode was applied to measure the right ventricular cavity thickness during end diastole using the parasternal long-axis view obtained from the right side of the rat. Tissue and blood samples were collected at termination. Tissues were fixed in 10% formalin, embedded in paraffin, and then processed for histomorphometry. Macrophage in lung tissues were determined by immunostaining using CD68 antibodies.

The mark [3] stands for this setting: Table 2, ADMA-lowering agents including heterocycles.
Setting [4] is: Table 1, stilbene-based ADMA-modulating agents.
The mark [5] stands for this setting: Table 3, other ADMA-lowering agents.
[6] abbreviates: after 6 weeks, echocardiography.

Entries after “also recorded” stand apart in the source; their conditions may differ.

As to `O=C(O)c1cccc(/C=C\c2ccncc2)c1` [VN-387, (Z)-3-(2-(pyridin-4-yl)vinyl)benzoic acid], in the experiment with DDAH promoter (setting [3]), the EC50 – broadly, the concentration that produces a half-maximal response – came out at 1.7 nM.

In the experiment with DDAH promoter (setting [4]), `O=C(O)c1cccc(/C=C/c2cccc(OCCN3CCOCC3)c2)c1` [VN-362, (E)-3-(3-(2-morpholinoethoxy)styryl)benzoic acid] displayed an EC50 of 1.3 nM.

`O=C(O)c1cccc([C@H]2C[C@@H]2c2ccccc2)c1` [VN-347, 3-((1S,2S)-2-phenylcyclopropyl)benzoic acid]: a half-maximal effect in the experiment on DDAH promoter (setting [5]) (EC50) was put at 3.3 nM.

Take `O=C(O)c1cccc(/C=C/c2ccc(Cl)cc2)c1` [VN-371, (E)-3-(4-chlorostyryl)benzoic acid]: the 50% effective concentration (EC50) in the experiment on DDAH promoter (setting [4]) was 1.4 nM. This counts as single-digit nanomolar.

On to `O=C(O)c1cccc(/C=C\c2ccc(F)cc2)c1` [VN-372, (Z)-3-(4-fluorostyryl)benzoic acid], for which a half-maximal response in the experiment on DDAH promoter (setting [4]) (EC50) required 10.4 nM.

`O=C(O)c1cccc(/C=C/c2ccccc2)c1` [VN-330, (E)-3-styrylbenzoic acid] returned an EC50 in the experiment with DDAH promoter (setting [4]) of 53 nM.

Molecule `COc1ccc(/C=C/c2cccc(C(=O)O)c2)c(C)c1` [VN-333, (E)-3-(4-methoxy-2-methylstyryl)benzoic acid] gave an EC50 in the experiment on DDAH promoter (setting [4]) of 1.8 nM.

In the case of `O=C(O)c1cccc(/C=C\c2ccc(Cl)cc2)c1` [VN-379, (Z)-3-(4-chlorostyryl)benzoic acid], the EC50 in the experiment on DDAH promoter (setting [4]) came out at 3.9 nM. This EC50 is about 2.2-fold higher than that of the molecule before.

On to `O=C(O)c1cccc(/C=C\c2cncs2)c1` [VN-386, (Z)-3-(2-(thiazol-5-yl)vinyl)benzoic acid], for which, in the experiment with DDAH promoter (setting [3]), a half-maximal response (EC50) required 2.8 nM.

`Cc1ccccc1/C=C/c1cccc(C(=O)O)c1` [VN-329, (E)-3-(2-methylstyryl)benzoic acid] returned an EC50 with DDAH promoter (setting [4]) of 8.7 nM.

Consider `O=C(O)c1cccc(/C=C/c2ccsc2)c1` [VN-369, (E)-3-(2-(thiophen-3-yl)vinyl)benzoic acid], for which the EC50 in the experiment with DDAH promoter (setting [3]) was 1.23 nM. This lies in the single-digit nanomolar range.

`O=C(O)c1cccc(/C=C/c2cscn2)c1` [VN-366, (E)-3-(2-(thiazol-4-yl)vinyl)benzoic acid]: in the experiment on DDAH promoter (setting [3]), the response was half-maximal at 1370 nM (EC50). This EC50 is about 1100-fold higher than that of the molecule before.

In the case of `O=C(O)c1cccc(/C=C\c2cccs2)c1` [VN-373, (Z)-3-(2-(thiophen-2-yl)vinyl)benzoic acid], the midpoint of the response in the experiment on DDAH promoter (setting [3]), the EC50, lay at 0.76 nM.

Take `O=C(O)c1cccc(/C=C/c2ccncc2)c1` [VN-355, (E)-3-(2-(pyridin-4-yl)vinyl)benzoic acid]: it took 651 nM to reach a half-maximal effect in the experiment with DDAH promoter (setting [3]) (EC50).

In the experiment on DDAH promoter (setting [3]), `O=C(O)c1cccc(/C=C/c2cccnc2)c1` [VN-353, (E)-3-(2-(pyridin-3-yl)vinyl)benzoic acid] had a 50% effective concentration (EC50) of 58 nM.

On to `O=C(O)c1cccc(/C=C\c2ccccc2)c1` [VN-339, (Z)-3-styrylbenzoic acid], for which the “EC50 nM” value at DDAH promoter (setting [4]) was “Ambiguous”.

On to `O=C(O)c1cccc(/C=C\c2cccc(OCCN3CCOCC3)c2)c1` [VN-388, (Z)-3-(3-(2-morpholinoethoxy)styryl)benzoic acid], for which the “EC50 nM” value on DDAH promoter (setting [4]) was “Ambiguous”.

`O=C(O)c1cccc(/C=C\c2cocn2)c1` [VN-380, (Z)-3-(2-(oxazol-4-yl)vinyl)benzoic acid] had a 50% effective concentration (EC50) in the experiment with DDAH promoter (setting [3]) of 0.17 nM.

`O=C(O)c1cccc(/C=C/c2ccc(OCCN3CCOCC3)cc2)c1` [VN-363, (E)-3-(4-(2-morpholinoethoxy)styryl)benzoic acid] came in with a concentration giving a half-maximal response (EC50) in the experiment on DDAH promoter (setting [4]) of 0.97 nM.

In the experiment with DDAH promoter (setting [4]), `O=C(O)c1cccc(/C=C/c2ccc(F)cc2)c1` [VN-390, (E)-3-(4-fluorostyryl)benzoic acid] gave an EC50 of 3.4 nM.

As for `O=C(O)c1cccc(/C=C/c2cccnc2)c1` [VN-354, (E)-3-(2-(pyridin-3-yl)vinyl)benzoic acid], in the experiment with DDAH promoter (setting [3]), the midpoint of the response, the EC50, lay at 672 nM.

`O=C(O)c1cccc(/C=C/c2ccc(O)cc2)c1` [VN-328, (E)-3-(4-hydroxystyryl)benzoic acid] gave an EC50 in the experiment on DDAH promoter (setting [4]) of 18.6 nM.

On to `O=C(O)c1cccc(/C=C/c2cccs2)c1` [VN-368, (E)-3-(2-(thiophen-2-yl)vinyl)benzoic acid], for which the EC50 with DDAH promoter (setting [3]) came out at 0.79 nM.

As to `O=C(O)c1cccc(/C=C/c2nccs2)c1` [VN-365, (E)-3-(2-(thiazol-2-yl)vinyl)benzoic acid], a half-maximal effect in the experiment with DDAH promoter (setting [3]) (EC50) was put at 180 nM.

Turning to `O=C(O)c1cccc(/C=C/c2cocn2)c1` [VN-351, (E)-3-(2-(oxazol-4-yl)vinyl)benzoic acid], the concentration for a half-maximal effect (EC50) in the experiment on DDAH promoter (setting [3]) is 87 nM.

In the experiment on DDAH promoter (setting [5]), `O=C(O)c1cccc([C@@H]2C[C@@H]2c2ccccc2)c1` [VN-376, 3-((1R,2S)-2-phenylcyclopropyl)benzoic acid] gave an EC50 of 527 nM.

In the case of `Cc1cc(O)ccc1/C=C/c1cccc(C(=O)O)c1` [VN-317, (E)-3-(4-hydroxy-2-methylstyryl)benzoic acid], the response in the experiment on DDAH promoter (setting [4]) was half-maximal at 7 nM (EC50). The “DDAH-1 protein expression (western blot)” value with DDAH-1 protein [1] is recorded as “enhancing; also recorded: enhanced”. Moreover, the “DDAH-1 protein expression (western blot)” value in the experiment with DDAH-1 protein [2] is on record as “reducing; also recorded: reduced”. The “collagen production (western blot)” value in the experiment on collagen 1 is reported as “reduced”. In the experiment on monocrotalin induced PAH (after 6 weeks), the “inflammation in the lung (CD68 immuno-staining)” value is recorded as “dramatic reduction; also recorded: reduced”, the “pulmonary artery medial thickening (histology)” value is given as “open artery; also recorded: reduced”, the “pulmonary artery pressure (PAP)” value is reported as “significantly reduced” and the “vascular disease in the lung” value was “reduced”. Further, in the experiment with monocrotalin induced PAH (setting [6]), the “pulmonary artery blood acceleration time (PAAT)” value is “increased” and the “right ventricle cavity thickness” value was “reduced”. The body weight loss result in the experiment on monocrotalin induced PAH (over 6 weeks) is recorded as “prevented”. Besides, the mortality entry in the experiment on monocrotalin induced PAH (until week 6, N=6) was “none and reduced”.

Molecule `O=C(O)c1cc(/C=C/c2ccccc2)ccc1O` [VN-359, (E)-2-hydroxy-5-styrylbenzoic acid] yielded a 50% effective concentration (EC50) in the experiment on DDAH promoter (setting [4]) of 0.16 nM.

Turning to `COc1ccc(/C=C\c2cccc(C(=O)O)c2)c(C)c1` [VN-342, (Z)-3-(4-methoxy-2-methylstyryl)benzoic acid], the EC50 in the experiment with DDAH promoter (setting [4]) was 81.5 nM.

In the case of `O=C(O)c1cccc(/C=C\c2cccnc2)c1` [VN-381, (Z)-3-(2-(pyridin-3-yl)vinyl)benzoic acid], in the experiment on DDAH promoter (setting [3]), the concentration for a half-maximal effect (EC50) amounted to 0.73 nM.

In the experiment on DDAH promoter (setting [3]), `O=C(O)c1cccc(/C=C/c2cncs2)c1` [VN-367, (E)-3-(2-(thiazol-5-yl)vinyl)benzoic acid] came in with a half-maximal effective concentration (EC50) of 1060 nM.
